The record followed here is patent US20110151529A1, “METHODS AND PROCESSES FOR PRODUCING ORGANIC ACIDS” (THE OHIO STATE UNIVERSITY, priority 2008, published 2011).

Experiment [1] relates to C. tyrobutyricum original culture (wild type). Put plainly: Butyrate inhibition of cell growth, noncompetitive product inhibition model, original culture. Type of experiment: cell-based, Clostridium tyrobutyricum.
Experiment [2] has as its system P. acidipropionici wild type. Put plainly: Propionic acid inhibition of specific growth rate, free-cell culture, wild type. The settings on record: at 20 g/L propionic acid.
For experiment [3], the system named is P. acidipropionici adapted ACK-Tet from FBB. The settings on record: at 20 g/L propionic acid.

In the case of `CCCC(=O)O` [butyric acid], the “butyrate concentration beyond which the culture lost its ability to grow” value in experiment [1] is greater than 20 g/L.

For the compound `CCC(=O)O` [propionic acid], in experiment [2], the growth rate lost entry is reported as “more than 80%”. In experiment [3], the “specific growth rate retained relative to 0 g/L of propionic acid” value is “about 75%”.
